According to patent US11076594B2, “Pyrazolone compound or salt thereof, preparation method therefor, herbicide composition and use thereof” (QINGDAO KINGAGROOT CHEMICAL COMPOUNDS CO., LTD., priority 2015, dated 2021):

What was measured:
Type in all cases: in vivo
Indian mallow = experiment: weed control effect in post-emergence stage (Table 1); parameters: key: Level 10: completely dead; Level 9: above 95% growth control rate; Level 8: above 90% growth control rate; Level 7: above 80% growth control rate; Level 6: above 70% growth control rate; Level 5: above 60% growth control rate; Level 4: above 50% growth control rate; Level 3: above 20% growth control rate; Level 2: 5%-20% growth control rate; Level 1: below 5% growth control rate; details: post-emergence spray at 4-5 leaf stage, 250 g/ha active ingredient with 450 kg/ha water, rated after 3 weeks in greenhouse
Procedure, shortened: (§1)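 Seeds were sown in pots, covered with 0.5-2 cm soil and grown in a greenhouse. At the 4-5 leaf stage, plants were sprayed with the test compound formulated in acetone, Tween 80 and water. Fresh weight control was rated after 3 weeks.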

bidens bipinnata = experiment: as above; parameters: key: Level 10: completely dead; Level 9: above 95% growth control rate; Level 8: above 90% growth control rate; Level 7: above 80% growth control rate; Level 6: above 70% growth control rate; Level 5: above 60% growth control rate; Level 4: above 50% growth control rate; Level 3: above 20% growth control rate; Level 2: 5%-20% growth control rate; Level 1: below 5% growth control rate; details: post-emergence spray at 4-5 leaf stage, 250 g/ha active ingredient with 450 kg/ha water, rated after 3 weeks in greenhouse
Procedure, shortened: as §1

corn = experiment: post-emergence stage experiment, crop (Table 1); details: post-emergence spray at 4-5 leaf stage, 250 g/ha active ingredient with 450 kg/ha water, rated after 3 weeks in greenhouse
Procedure, shortened: as §1

wheat [1] = experiment: post-emergence stage experiment, crop (Table 1); details: post-emergence spray at 4-5 leaf stage, 250 g/ha active ingredient with 450 kg/ha water, rated after 3 weeks in greenhouse
Procedure, shortened: as §1

rice = experiment: post-emergence stage experiment, crop (Table 1); details: post-emergence spray at 4-5 leaf stage, 250 g/ha active ingredient with 450 kg/ha water, rated after 3 weeks in greenhouse
Procedure, shortened: as §1

wheat [2] = experiment: wheat field test, crop selectivity, greenhouse spray at 4 leaf stage; details: 4 weeks after treatment
Procedure, shortened: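 Read-out: fresh weight control rate, scored 4 weeks after a post-emergence spray. Treatment at 4 leaf stage (2-3 weeks after sowing); compound dissolved in acetone, with methyl oleate emulsion, diluted with water.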

bidens tripartite = experiment: weed control effect evaluation in rice field; parameters: key: Level 10: completely dead; Level 9: above 95% growth control rate; Level 8: above 90% growth control rate; Level 7: above 80% growth control rate; Level 6: above 70% growth control rate; Level 5: above 60% growth control rate; Level 4: above 50% growth control rate; Level 3: above 20% growth control rate; Level 2: 5%-20% growth control rate; Level 1: below 5% growth control rate; details: 125 g/ha ai; rice field pot; 14 days after treatment; resistant to pyrazosulfuron-ethyl
Procedure, shortened: (§2)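 Seeds sown in flooded rice-field soil in greenhouse pots; sagittaria tubers planted 1-2 days later, water kept at 3-4 cm. WP or SC dilutions dripped on at 0.5-leaf stage (sagittaria at primary leaf stage) at specified effective amounts. Weed growth control scored visually at 14 days, rice at 21 days.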

echinochloa = experiment: weed control effect evaluation in rice field; parameters: key: Level 10: completely dead; Level 9: above 95% growth control rate; Level 8: above 90% growth control rate; Level 7: above 80% growth control rate; Level 6: above 70% growth control rate; Level 5: above 60% growth control rate; Level 4: above 50% growth control rate; Level 3: above 20% growth control rate; Level 2: 5%-20% growth control rate; Level 1: below 5% growth control rate; details: 125 g/ha ai; rice field pot; 14 days after treatment; resistant to pyrazosulfuron-ethyl
Procedure, shortened: as §2

sagittaria trifolia = experiment: weed control effect evaluation in rice field; parameters: key: Level 10: completely dead; Level 9: above 95% growth control rate; Level 8: above 90% growth control rate; Level 7: above 80% growth control rate; Level 6: above 70% growth control rate; Level 5: above 60% growth control rate; Level 4: above 50% growth control rate; Level 3: above 20% growth control rate; Level 2: 5%-20% growth control rate; Level 1: below 5% growth control rate; details: 125 g/ha ai; rice field pot; 14 days after treatment; resistant to pyrazosulfuron-ethyl
Procedure, shortened: as §2

scirpus juncoides = experiment: weed control effect evaluation in rice field; parameters: key: Level 10: completely dead; Level 9: above 95% growth control rate; Level 8: above 90% growth control rate; Level 7: above 80% growth control rate; Level 6: above 70% growth control rate; Level 5: above 60% growth control rate; Level 4: above 50% growth control rate; Level 3: above 20% growth control rate; Level 2: 5%-20% growth control rate; Level 1: below 5% growth control rate; details: 125 g/ha ai; rice field pot; 14 days after treatment; resistant to pyrazosulfuron-ethyl
Procedure, shortened: as §2

rice (japonica rice) = experiment: transplanted rice safety evaluation; details: 125 g/ha ai; treated 5 days after transplantation; 21 days after treatment
Procedure, shortened: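 Japonica rice at the 3-leaf stage was transplanted 3 cm deep into flooded paddy soil (water 3-4 cm) and treated with compound 5 days after transplanting. Crop growth condition was scored visually 21 days after treatment.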

[3] = 2 g/mu, sprayed at 4 leaf stage
[4] = 4 g/mu, sprayed at 4 leaf stage
[5] = 8 g/mu, sprayed at 4 leaf stage
[6] = 16 g/mu, sprayed at 4 leaf stage
[7] = 32 g/mu, sprayed at 4 leaf stage
[8] = 250 g/ha of the active substance

Which “weed control effect, Indian mallow (level)” value (Indian mallow) does the source give for Cc1nn(C)cc1C(=O)Oc1c(C(=O)c2ccc(C(F)(F)F)c(N3CCCC3=O)c2Cl)c(C)nn1C [Compound 023] here?
The value was 10.

What about the “weed control effect, Bidens bipinnata (level)” value (bidens bipinnata) of the same compound?
The value was 10.

What about the “effect on crop, Corn (level)” value (corn) of the same compound?
The value was 5 (Level 5: above 60% growth control rate).

What about the “effect on crop, Wheat (level)” value (wheat [1]) of the same compound?
The value was 4 (Level 4: above 50% growth control rate).

And the “effect on crop, Rice (level)” value (rice)?
The value was 4 (Level 4: above 50% growth control rate).

What about the “Wheat (activity level, crop damage)” value (wheat [2]; [3]) of the same compound?
The value was 1 (Level 1: below 5% growth control rate).

What about the “Wheat (activity level, crop damage)” value (wheat [2]; [4]) of the same compound?
The value was 2 (Level 2: 5%-20% growth control rate).

What about the “Wheat (activity level, crop damage)” value (wheat [2]; [5]) of the same compound?
Its value is 3 (Level 3: above 20% growth control rate).

And the “Wheat (activity level, crop damage)” value (wheat [2]; [6])?
The value was 4 (Level 4: above 50% growth control rate).

What about the “Wheat (activity level, crop damage)” value (wheat [2]; [7]) of the same compound?
The value was 4 (Level 4: above 50% growth control rate).

And the “Bidens tripartite weed control effect (activity level)” value (“Bidens tripartite weed control effect” below) (bidens tripartite)?
Its value is 10.

And the “Echinochloa weed control effect (activity level)” value (“Echinochloa weed control effect” for short) (echinochloa)?
Its value is 10.

And the “Sagittaria trifolia weed control effect (activity level)” value (“Sagittaria trifolia weed control effect” below) (sagittaria trifolia)?
Its value is 10.

And the “Scirpus juncoides weed control effect (activity level)” value (shortened to “Scirpus juncoides weed control effect”) (scirpus juncoides)?
The value was 10.

What about the “Rice (activity level, transplanted rice safety)” value (rice (japonica rice)) of the same compound?
Its value is 0.

What does the source list for Cc1nn(C)c(O)c1C(=O)c1ccc(C(F)(F)F)c(N2CCCCC2=O)c1Cl [Compound 035]?
weed control effect, Indian mallow (level) (Indian mallow): 9 (Level 9: above 95% growth control rate); weed control effect, Bidens bipinnata (level) (bidens bipinnata): 9 (Level 9: above 95% growth control rate); effect on crop, Wheat (level) (wheat [1]): 0; effect on crop, Rice (level) (rice): 6 (Level 6: above 70% growth control rate); Wheat (activity level, crop damage) (wheat [2]; [3]): 0; Wheat (activity level, crop damage) (wheat [2]; [4]): 0; Wheat (activity level, crop damage) (wheat [2]; [5]): 0; Wheat (activity level, crop damage) (wheat [2]; [6]): 0; Wheat (activity level, crop damage) (wheat [2]; [7]): 0; Bidens tripartite weed control effect (activity level) (bidens tripartite): 9 (Level 9: above 95% growth control rate); Echinochloa weed control effect (activity level) (echinochloa): 8 (Level 8: above 90% growth control rate); Sagittaria trifolia weed control effect (activity level) (sagittaria trifolia): 9 (Level 9: above 95% growth control rate); Scirpus juncoides weed control effect (activity level) (scirpus juncoides): 10; Rice (activity level, transplanted rice safety) (rice (japonica rice)): 0

Which results are given for CCOc1c(C(=O)Oc2c(C(=O)c3ccc(C(F)(F)F)c(N4CCCCC4=O)c3Cl)c(C)nn2C)cnn1C [Compound 037]?
weed control effect, Indian mallow (level) (Indian mallow): 10; weed control effect, Bidens bipinnata (level) (bidens bipinnata): 10; effect on crop, Corn (level) (corn): 0; effect on crop, Wheat (level) (wheat [1]): 0; effect on crop, Rice (level) (rice): 3 (Level 3: above 20% growth control rate); Wheat (activity level, crop damage) (wheat [2]; [8]): 0; Bidens tripartite weed control effect (activity level) (bidens tripartite): 10; Echinochloa weed control effect (activity level) (echinochloa): 10; Sagittaria trifolia weed control effect (activity level) (sagittaria trifolia): 10; Scirpus juncoides weed control effect (activity level) (scirpus juncoides): 10; Rice (activity level, transplanted rice safety) (rice (japonica rice)): 2 (Level 2: 5%-20% growth control rate)

What does the source list for CCOc1c(C(=O)Oc2c(C(=O)c3ccc(C(F)(F)F)c(-n4cccn4)c3Cl)c(C)nn2C)cnn1C [Compound 071]?
weed control effect, Indian mallow (level) (Indian mallow): 10; weed control effect, Bidens bipinnata (level) (bidens bipinnata): 7 (Level 7: above 80% growth control rate); effect on crop, Corn (level) (corn): 1 (Level 1: below 5% growth control rate); effect on crop, Wheat (level) (wheat [1]): 0; effect on crop, Rice (level) (rice): 1 (Level 1: below 5% growth control rate); Wheat (activity level, crop damage) (wheat [2]; [8]): 0; Bidens tripartite weed control effect (activity level) (bidens tripartite): 8 (Level 8: above 90% growth control rate); Echinochloa weed control effect (activity level) (echinochloa): 10; Sagittaria trifolia weed control effect (activity level) (sagittaria trifolia): 10; Scirpus juncoides weed control effect (activity level) (scirpus juncoides): 10; Rice (activity level, transplanted rice safety) (rice (japonica rice)): 0

How did the “weed control effect, Indian mallow (level)” value (Indian mallow) turn out when CCOc1c(C(=O)Oc2c(C(=O)c3ccc(C(F)(F)F)c(-n4cc(C)cn4)c3Cl)cnn2C)cnn1C [Compound 081] was run?
The value was 10.

What about the “weed control effect, Bidens bipinnata (level)” value (bidens bipinnata) of the same compound?
Its value is 10.

And the “effect on crop, Corn (level)” value (corn)?
The value was 2 (Level 2: 5%-20% growth control rate).

What about the “effect on crop, Wheat (level)” value (wheat [1]) of the same compound?
The value was 0.

And the “effect on crop, Rice (level)” value (rice)?
The value was 3 (Level 3: above 20% growth control rate).

What about the “Wheat (activity level, crop damage)” value (wheat [2]; [8]) of the same compound?
Its value is 0.

What about the “Bidens tripartite weed control effect” value (bidens tripartite) of the same compound?
Its value is 10.

And the “Echinochloa weed control effect” value (echinochloa)?
The value was 10.

What about the “Sagittaria trifolia weed control effect” value (sagittaria trifolia) of the same compound?
The value was 10.

What about the “Scirpus juncoides weed control effect” value (scirpus juncoides) of the same compound?
Its value is 10.

And the “Rice (activity level, transplanted rice safety)” value (rice (japonica rice))?
Its value is 1 (Level 1: below 5% growth control rate).

With CCOc1c(C(=O)Oc2c(C(=O)c3ccc(C(F)(F)F)c(-n4cc(C)cn4)c3Cl)c(C3CC3)nn2C)cnn1C [Compound 092] as the compound, how does the “weed control effect, Indian mallow (level)” value (Indian mallow) read?
The value was 10.

And the “weed control effect, Bidens bipinnata (level)” value (bidens bipinnata)?
The value was 8 (Level 8: above 90% growth control rate).

And the “effect on crop, Corn (level)” value (corn)?
The value was 2 (Level 2: 5%-20% growth control rate).

What about the “effect on crop, Wheat (level)” value (wheat [1]) of the same compound?
The value was 1 (Level 1: below 5% growth control rate).

What about the “effect on crop, Rice (level)” value (rice) of the same compound?
Its value is 2 (Level 2: 5%-20% growth control rate).

And the “Wheat (activity level, crop damage)” value (wheat [2]; [8])?
Its value is 1 (Level 1: below 5% growth control rate).

What about the “Bidens tripartite weed control effect” value (bidens tripartite) of the same compound?
Its value is 9 (Level 9: above 95% growth control rate).

What about the “Echinochloa weed control effect” value (echinochloa) of the same compound?
Its value is 10.

And the “Sagittaria trifolia weed control effect” value (sagittaria trifolia)?
The value was 10.

And the “Scirpus juncoides weed control effect” value (scirpus juncoides)?
Its value is 10.

What about the “Rice (activity level, transplanted rice safety)” value (rice (japonica rice)) of the same compound?
The value was 0.

CCn1nc(C)c(C(=O)c2ccc(C(F)(F)F)c(-n3cccn3)c2Cl)c1OC(=O)c1cn(C)nc1C [Compound 129] was tested. Which “weed control effect, Indian mallow (level)” value (Indian mallow) did it give?
The value was 3 (Level 3: above 20% growth control rate).

What about the “weed control effect, Bidens bipinnata (level)” value (bidens bipinnata) of the same compound?
The value was 9 (Level 9: above 95% growth control rate).

And the “effect on crop, Corn (level)” value (corn)?
Its value is 3 (Level 3: above 20% growth control rate).

And the “effect on crop, Wheat (level)” value (wheat [1])?
Its value is 1 (Level 1: below 5% growth control rate).

What about the “effect on crop, Rice (level)” value (rice) of the same compound?
Its value is 6 (Level 6: above 70% growth control rate).

What about the “Wheat (activity level, crop damage)” value (wheat [2]; [8]) of the same compound?
Its value is 1 (Level 1: below 5% growth control rate).

And the “Bidens tripartite weed control effect” value (bidens tripartite)?
Its value is 10.

And the “Echinochloa weed control effect” value (echinochloa)?
Its value is 10.

And the “Sagittaria trifolia weed control effect” value (sagittaria trifolia)?
Its value is 10.

What about the “Scirpus juncoides weed control effect” value (scirpus juncoides) of the same compound?
Its value is 10.

And the “Rice (activity level, transplanted rice safety)” value (rice (japonica rice))?
The value was 2 (Level 2: 5%-20% growth control rate).
